From patent US20110294766A1, “16 Alpha, 17 Alpha-Acetal Glucocorticosteroidal Derivatives and their Use” (AstraZeneca AB, priority 2008, published 2011)

Molecular target: T1, recombinant human GR (Homo sapiens, UniProt P04150)
T1 construct: purchased Panvera/Invitrogen P2812 (kit P2893)
T1 sequence (P04150 1-777): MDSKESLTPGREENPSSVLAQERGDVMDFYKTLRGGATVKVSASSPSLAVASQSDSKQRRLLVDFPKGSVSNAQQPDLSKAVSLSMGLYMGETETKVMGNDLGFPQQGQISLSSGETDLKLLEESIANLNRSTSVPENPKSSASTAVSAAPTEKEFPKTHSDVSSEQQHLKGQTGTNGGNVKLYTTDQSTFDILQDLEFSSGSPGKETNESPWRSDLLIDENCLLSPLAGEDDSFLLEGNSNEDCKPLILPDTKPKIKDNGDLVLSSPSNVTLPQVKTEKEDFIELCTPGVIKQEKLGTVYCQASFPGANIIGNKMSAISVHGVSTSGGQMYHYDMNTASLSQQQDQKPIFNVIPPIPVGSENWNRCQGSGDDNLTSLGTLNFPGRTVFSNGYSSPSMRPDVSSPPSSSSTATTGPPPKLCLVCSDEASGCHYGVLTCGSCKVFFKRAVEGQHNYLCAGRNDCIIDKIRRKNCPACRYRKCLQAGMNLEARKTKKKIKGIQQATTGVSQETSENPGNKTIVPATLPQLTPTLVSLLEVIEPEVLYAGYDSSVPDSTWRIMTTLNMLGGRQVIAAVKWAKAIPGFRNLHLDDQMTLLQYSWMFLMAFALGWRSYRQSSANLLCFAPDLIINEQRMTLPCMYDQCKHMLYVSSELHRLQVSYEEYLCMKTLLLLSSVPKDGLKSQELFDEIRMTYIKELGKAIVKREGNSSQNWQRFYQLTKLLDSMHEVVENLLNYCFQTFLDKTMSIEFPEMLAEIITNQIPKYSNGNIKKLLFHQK
Assay: Human Glucocorticoid Receptor (GR) Assay (fluorescence polarization, Panvera/Invitrogen kit)
Settings: GS Red tracer, 2 hours at room temperature, 100% control 10 μM Dexamethasone, read-out: Inhibition of GR binding, IC50
Protocol: Human Glucocorticoid Receptor (GR) Assay The assay is based on a commercial kit from Panvera/Invitrogen (Part number P2893). The assay technology is fluorescence polarization. The kit utilises recombinant human GR (Panvera, Part number P2812), a Fluoromone™ labelled tracer (GS Red, Panvera, Part number P2894) and a Stabilizing Peptide 10× (Panvera, Part number P2815). The GR and Stabilizing Peptide reagents are stored at −70° C. while the GS Red is stored at −20° C. Also included in the kit are 1M DTT (Panvera, Part number P2325, stored at −20° C.) and GR Screening buffer 10× (Panvera, Part number P2814, stored at −70° C. initially but once thawed stored at room temperature). Avoid repeated freeze/thaws for all reagents. The GR Screening buffer 10× comprises 100 mM potassium phosphate, 200 mM sodium molybdate, 1 mM EDTA and 20% DMSO. Test compounds (1 μL) and controls (1 μL) in 100% DMSO were added to black polystyrene 384-well plates (Greiner low volume black flat-bottom, part number 784076). 0% control was 100% DMSO and 100% control was 10 μM Dexamethasone. Background solution (8 μL; assay buffer 10×, Stabilizing Peptide, DTT and ice cold MQ water) was added to the background wells. GS Red solution (7 μL; assay buffer 10×, Stabilizing Peptide, DTT, GS Red and ice cold water) was added to all wells except background wells. GR solution (7 μL; assay buffer 10×, Stabilizing Peptide, DTT, GR and ice cold water) was added to all wells. The plate was sealed and incubated in a dark at room temperature for 2 hours. The plate was read in an Analyst plate reader (LJL Biosystems/Molecular Devices Corporation) or other similar plate reader capable of recording fluorescence polarization (excitation wavelength 530 nm, emission wavelength 590 nm and a dichroic mirror at 561 nm).

IC50 [nM]	Structure (SMILES)
0.88	COc1ccc([C@H]2O[C@@H]3C[C@H]4[C@@H]5CCC6=CC(=O)C=C[C@]6(C)[C@H]5[C@@H](O)C[C@]4(C)[C@]3(C(=O)SC)O2)c(F)c1 (single isomer, unassigned) [Example 38 (8S)]
1.2	C[C@]12C=CC(=O)C=C1[C@@H](F)C[C@H]1[C@@H]3C[C@H]4OC(c5ccco5)O[C@@]4(C(=O)SCC#N)[C@@]3(C)C[C@H](O)[C@@]12F (stereo partly shown) [Example 1]
1.2	C[C@]12C=CC(=O)C=C1[C@@H](F)C[C@H]1[C@@H]3C[C@H]4OC(c5ccco5)O[C@@]4(C(=O)SCC#CCO)[C@@]3(C)C[C@H](O)[C@@]12F (stereo partly shown) [Example 2]
0.92	C[C@]12C=CC(=O)C=C1[C@@H](F)C[C@H]1[C@@H]3C[C@H]4OC(c5ccco5)O[C@@]4(C(=O)SCF)[C@@]3(C)C[C@H](O)[C@@]12F (stereo partly shown) [Example 3]
0.96	CSC(=O)[C@@]12O[C@@H](c3cccs3)O[C@@H]1C[C@H]1[C@@H]3C[C@H](F)C4=CC(=O)C=C[C@]4(C)[C@@]3(F)[C@@H](O)C[C@@]12C [Example 4, S-Methyl (4aS,4bR,5S,6aS,6bS,8S,9aR,10aS,10bS,12S)-4b,12-difluoro-5-hydroxy-4a,6a-dimethyl-2-oxo-8-(2-thienyl)-2,4a,4b,5,6,6a,9a,10,10a,10,11,12-dodecahydro-6bH-naphtho[2′,1′:4,5]indeno[1,2-d][1,3]dioxole-6b-carbothioate]
1.1	CSC(=O)[C@@]12OC(c3ccc(F)cc3F)O[C@@H]1C[C@H]1[C@@H]3C[C@H](F)C4=CC(=O)C=C[C@]4(C)[C@@]3(F)[C@@H](O)C[C@@]12C (stereo partly drawn) [Example 5, S-Methyl (4aS,4bR,5S,6aS,6bS,9aR,10aS,10bS,12S)-8-(2,4-difluorophenyl)-4b,12-difluoro-5-hydroxy-4a,6a-dimethyl-2-oxo-2,4a,4b,5,6,6a,9a,10,10a,10b,11,12-dodecahydro-6bH-naphtho[2′,1′:4,5]indeno[1,2-d][1,3]dioxole-6b-carbothioate]
1.2	C[C@]12C=CC(=O)C=C1[C@@H](F)C[C@H]1[C@@H]3C[C@H]4OC(c5ccc(F)cc5F)O[C@@]4(C(=O)SCF)[C@@]3(C)C[C@H](O)[C@@]12F (stereo partly drawn) [Example 6, S-(Fluoromethyl)(4aS,4bR,5S,6aS,6bS,9aR,10aS,10bS,12S)-8-(2,4-difluorophenyl)-4b,12-difluoro-5-hydroxy-4a,6a-dimethyl-2-oxo-2,4a,4b,5,6,6a,9a,10,10a,10b,11,12-dodecahydro-6bH-naphtho[2′,1′:4,5]indeno[1,2-d][1,3]dioxole-6b-carbothioate]
1	Cc1ccc([C@H]2O[C@@H]3C[C@H]4[C@@H]5C[C@H](F)C6=CC(=O)C=C[C@]6(C)[C@@]5(F)[C@@H](O)C[C@]4(C)[C@]3(C(=O)SCF)O2)o1 [Example 7, S-(Fluoromethyl)(4aS,4bR,5S,6aS,6bS,8S,9aR,10aS,10bS,12S)-4b,12-difluoro-5-hydroxy-4a,6a-dimethyl-8-(5-methyl-2-furyl)-2-oxo-2,4a,4b,5,6,6a,9a,10,10a,10b,11,12-dodecahydro-6bH-naphtho[2′,1′:4,5]indeno[1,2-d][1,3]dioxole-6b-carbothioate]
1.9	CSC(=O)[C@@]12OC(c3ccc(C)o3)O[C@@H]1C[C@H]1[C@@H]3C[C@H](F)C4=CC(=O)C=C[C@]4(C)[C@@]3(F)[C@@H](O)C[C@@]12C (stereo partly drawn) [Example 8, S-Methyl (4aS,4bR,5S,6aS,6bS,9aR,10aS,10bS,12S)-4b,12-difluoro-5-hydroxy-4a,6a-dimethyl-8-(5-methyl-2-furyl)-2-oxo-2,4a,4b,5,6,6a,9a,10,10a,10b,11,12-dodecahydro-6bH-naphtho[2′,1′:4,5]indeno[1,2-d][1,3]dioxole-6b-carbothioate]
0.57	C[C@]12C=CC(=O)C=C1[C@@H](F)C[C@H]1[C@@H]3C[C@H]4OC(c5cccs5)O[C@@]4(C(=O)SCC#N)[C@@]3(C)C[C@H](O)[C@@]12F (stereo partly drawn) [Example 9, S-(Cyanomethyl)(4aS,4bR,5S,6aS,6bS,9aR,10aS,10bS,12S)-4b,12-difluoro-5-hydroxy-4a,6a-dimethyl-2-oxo-8-(2-thienyl)-2,4a,4b,5,6,6a,9a,10,10a,10b,11,12-dodecahydro-6bH-naphtho[2′,1′:4,5]indeno[1,2-d][1,3]dioxole-6b-carbothioate]
1.1	Cc1ccc(C2O[C@@H]3C[C@H]4[C@@H]5C[C@H](F)C6=CC(=O)C=C[C@]6(C)[C@@]5(F)[C@@H](O)C[C@]4(C)[C@]3(C(=O)SCC#N)O2)o1 (stereo partly drawn) [Example 10, S-(Cyanomethyl)(4aS,4bR,5S,6aS,6bS,9aR,10aS,10bS,12S)-4b,12-difluoro-5-hydroxy-4a,6a-dimethyl-8-(5-methyl-2-furyl)-2-oxo-2,4a,4b,5,6,6a,9a,10,10a,10b,11,12-dodecahydro-6bH-naphtho[2′,1′:4,5]indeno[1,2-d][1,3]dioxole-6b-carbothioate]
0.59	C[C@]12C=CC(=O)C=C1[C@@H](F)C[C@H]1[C@@H]3C[C@H]4OC(c5ccc(Cl)o5)O[C@@]4(C(=O)SCF)[C@@]3(C)C[C@H](O)[C@@]12F (stereo partly drawn) [Example 11, S-(Fluoromethyl)(4aS,4bR,5S,6aS,6bS,9aR,10aS,10bS,12S)-8-(5-chloro-2-furyl)-4b,12-difluoro-5-hydroxy-4a,6a-dimethyl-2-oxo-2,4a,4b,5,6,6a,9a,10,10a,10b,11,12-dodecahydro-6bH-naphtho[2′,1′:4,5]indeno[1,2-d][1,3]dioxole-6b-carbothioate]
0.86	C[C@]12C=CC(=O)C=C1[C@@H](F)C[C@H]1[C@@H]3C[C@H]4OC(c5cc6ccccc6o5)O[C@@]4(C(=O)SCF)[C@@]3(C)C[C@H](O)[C@@]12F (stereo partly drawn) [Example 12, S-(Fluoromethyl)(4aS,4bR,5S,6aS,6bS,9aR,10aS,10bS,12S)-8-(1-benzofuran-2-yl)-4b,12-difluoro-5-hydroxy-4a,6a-dimethyl-2-oxo-2,4a,4b,5,6,6a,9a,10,10a,10b,11,12-dodecahydro-6bH-naphtho[2′,1′:4,5]indeno[1,2-d][1,3]dioxole-6b-carbothioate]
0.55	Cc1ccsc1C1O[C@@H]2C[C@H]3[C@@H]4C[C@H](F)C5=CC(=O)C=C[C@]5(C)[C@@]4(F)[C@@H](O)C[C@]3(C)[C@]2(C(=O)SCF)O1 (stereo partly drawn) [Example 13, S-(Fluoromethyl)(4aS,4bR,5S,6aS,6bS,9aR,10aS,10bS,12S)-4b,12-difluoro-5-hydroxy-4a,6a-dimethyl-8-(3-methyl-2-thienyl)-2-oxo-2,4a,4b,5,6,6a,9a,10,10a,10b,11,12-dodecahydro-6bH-naphtho[2′,1′:4,5]indeno[1,2-d][1,3]dioxole-6b-carbothioate]
1.2	C[C@]12C=CC(=O)C=C1[C@@H](F)C[C@H]1[C@@H]3C[C@H]4OC(c5ccc(C(F)(F)F)o5)O[C@@]4(C(=O)SCF)[C@@]3(C)C[C@H](O)[C@@]12F (stereo partly drawn) [Example 14, S-(Fluoromethyl)(4aS,4bR,5S,6aS,6bS,9aR,10aS,10bS,12S)-4b,12-difluoro-5-hydroxy-4a,6a-dimethyl-2-oxo-8-[5-(trifluoromethyl)-2-furyl]-2,4a,4b,5,6,6a,9a,10,10a,10b,11,12-dodecahydro-6bH-naphtho[2′,1′:4,5]indeno[1,2-d][1,3]dioxole-6b-carbothioate]
1	C[C@]12C=CC(=O)C=C1[C@@H](F)C[C@H]1[C@@H]3C[C@H]4OC(c5cccs5)O[C@@]4(C(=O)SCF)[C@@]3(C)C[C@H](O)[C@@]12F (stereo partly drawn) [Example 15, S-(Fluoromethyl)(4aS,4bR,5S,6aS,6bS,9aR,10aS,10bS,12S)-4b,12-difluoro-5-hydroxy-4a,6a-dimethyl-2-oxo-8-(2-thienyl)-2,4a,4b,5,6,6a,9a,10,10a,10b,11,12-dodecahydro-6bH-naphtho[2′,1′:4,5]indeno[1,2-d][1,3]dioxole-6b-carbothioate]
